Measured values reported in ChEMBL document CHEMBL4406827, “Novel 4-quinoline-thiosemicarbazone derivatives: Synthesis, antiproliferative activity, in vitro and in silico biomacromolecule interaction studies and topoisomerase inhibition” (Eur J Med Chem, 2019).
Activity calls are given as the source filed them. The rule behind the calls is not given here.

Key:
[1] = biological target: DNA topoisomerase 2-alpha (Homo sapiens) (UniProt P11388); experiment: Inhibition of recombinant human topoisomerase 2alpha using supercoiled pUC19 plasmid DNA as substrate at 10 uM incubated for 45 mins by ethidium bromide dye based agarose gel electrophoresis method
Sequence of DNA topoisomerase 2-alpha (Homo sapiens) (P11388 whole entry): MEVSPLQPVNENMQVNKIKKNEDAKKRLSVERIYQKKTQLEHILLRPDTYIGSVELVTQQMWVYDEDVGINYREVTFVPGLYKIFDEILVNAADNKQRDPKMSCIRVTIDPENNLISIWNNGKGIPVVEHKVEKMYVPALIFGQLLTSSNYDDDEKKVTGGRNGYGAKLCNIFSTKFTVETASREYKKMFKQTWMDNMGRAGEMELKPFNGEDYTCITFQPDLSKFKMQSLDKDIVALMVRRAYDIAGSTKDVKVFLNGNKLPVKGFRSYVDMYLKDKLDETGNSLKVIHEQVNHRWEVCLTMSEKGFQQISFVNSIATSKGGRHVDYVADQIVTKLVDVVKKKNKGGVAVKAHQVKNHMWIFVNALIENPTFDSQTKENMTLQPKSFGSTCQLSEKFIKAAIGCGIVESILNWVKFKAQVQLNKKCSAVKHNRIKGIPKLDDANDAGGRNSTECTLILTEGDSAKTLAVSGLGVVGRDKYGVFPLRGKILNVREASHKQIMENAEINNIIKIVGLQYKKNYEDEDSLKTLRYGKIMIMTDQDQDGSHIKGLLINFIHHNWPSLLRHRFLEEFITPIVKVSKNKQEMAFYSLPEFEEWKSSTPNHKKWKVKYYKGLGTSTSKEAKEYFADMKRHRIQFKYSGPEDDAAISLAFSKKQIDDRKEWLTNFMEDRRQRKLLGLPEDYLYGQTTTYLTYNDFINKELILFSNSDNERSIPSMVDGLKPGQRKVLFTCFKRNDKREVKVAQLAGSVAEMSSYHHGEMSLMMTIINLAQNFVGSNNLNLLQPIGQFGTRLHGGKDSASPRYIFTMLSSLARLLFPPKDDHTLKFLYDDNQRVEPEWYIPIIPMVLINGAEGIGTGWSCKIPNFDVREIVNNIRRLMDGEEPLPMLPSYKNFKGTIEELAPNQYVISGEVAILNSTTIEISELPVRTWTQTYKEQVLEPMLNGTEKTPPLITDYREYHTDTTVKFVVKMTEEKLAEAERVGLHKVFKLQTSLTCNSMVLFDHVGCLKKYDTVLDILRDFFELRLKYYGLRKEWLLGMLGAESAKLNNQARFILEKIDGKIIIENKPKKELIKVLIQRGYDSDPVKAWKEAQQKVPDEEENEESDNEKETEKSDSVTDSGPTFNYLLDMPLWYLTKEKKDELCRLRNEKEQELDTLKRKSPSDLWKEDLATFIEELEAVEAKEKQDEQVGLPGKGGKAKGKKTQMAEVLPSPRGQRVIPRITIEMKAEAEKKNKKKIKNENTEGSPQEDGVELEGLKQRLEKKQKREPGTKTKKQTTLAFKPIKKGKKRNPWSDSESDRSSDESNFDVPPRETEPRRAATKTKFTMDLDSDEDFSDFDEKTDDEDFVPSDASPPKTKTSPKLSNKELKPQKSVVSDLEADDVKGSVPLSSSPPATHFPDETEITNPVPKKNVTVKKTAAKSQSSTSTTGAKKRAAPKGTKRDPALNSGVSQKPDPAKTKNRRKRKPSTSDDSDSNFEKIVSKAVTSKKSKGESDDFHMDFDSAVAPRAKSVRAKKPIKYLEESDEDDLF

Salmon testes DNA = experiment: Binding affinity to salmon sperm […] DNA assessed as DNA intercalation by measuring increase in viscosity at 12 to 60 uM by viscometric method; type: nucleic-acid assay; details: Salmonidae
Albumin [2] = biological target: T1, Albumin (Bos taurus, UniProt P02769); experiment: Binding affinity to bovine serum albumin assessed as hypsochromic shift at 5 to 40 uM by fluorescence emission spectrum analysis method; type: ADME; details: cattle, isolated protein
T1 sequence (P02769 whole entry): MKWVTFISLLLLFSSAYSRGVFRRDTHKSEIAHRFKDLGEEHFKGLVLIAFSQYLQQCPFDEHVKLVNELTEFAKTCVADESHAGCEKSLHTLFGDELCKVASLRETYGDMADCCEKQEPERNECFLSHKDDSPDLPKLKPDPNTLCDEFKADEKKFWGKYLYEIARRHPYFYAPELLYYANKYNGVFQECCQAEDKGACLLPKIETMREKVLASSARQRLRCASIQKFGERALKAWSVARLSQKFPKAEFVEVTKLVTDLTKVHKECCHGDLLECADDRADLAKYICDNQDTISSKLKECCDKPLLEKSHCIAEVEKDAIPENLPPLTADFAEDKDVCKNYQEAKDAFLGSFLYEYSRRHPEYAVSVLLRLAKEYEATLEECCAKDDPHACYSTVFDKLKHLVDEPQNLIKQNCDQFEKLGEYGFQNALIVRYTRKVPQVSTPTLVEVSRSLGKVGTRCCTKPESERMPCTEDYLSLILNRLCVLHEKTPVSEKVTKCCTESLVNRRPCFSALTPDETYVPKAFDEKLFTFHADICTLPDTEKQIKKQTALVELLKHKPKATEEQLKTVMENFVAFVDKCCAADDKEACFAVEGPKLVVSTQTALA

[3] = Selectivity index, ratio of CC50 for mouse RAW264.7 cells to ratio of IC50 for human T47D cells; type: toxicity; details: RAW264.7 cells and T47D cells, read-out: Ratio CC50/IC50
T47D = experiment: Cytotoxicity against human T47D cells assessed as reduction in cell viability incubated for 48 hrs by MTT assay; type: functional, cell-based
Calf thymus DNA [4] = experiment: Binding affinity to calf thymus DNA assessed as bathochromic shift at 30 uM incubated for 10 mins by UV-Vis absorption spectroscopic method; type: nucleic-acid assay; details: Bos taurus
Albumin [5] = biological target: T1, Albumin; experiment: Binding affinity to bovine serum albumin assessed as Stem-Volmer quenching constant incubated for 10 mins by fluorescence emission spectrum analysis; type: ADME; details: cattle, isolated protein
Calf thymus DNA [6] = experiment: Binding affinity to calf thymus DNA assessed as hypsochromic shift at 10 uM by fluorescence emission spectrum analysis; type: nucleic-acid assay; details: Bos taurus
Calf thymus DNA [7] = experiment: Binding affinity to calf thymus DNA assessed as fold change in hypochromicity at 10 uM by fluorescence emission spectrum analysis relative to control; type: nucleic-acid assay; details: Bos taurus
MCF7 = experiment: Cytotoxicity against human MCF7 cells assessed as reduction in cell viability incubated for 48 hrs by MTT assay; type: functional, cell-based; details: MCF7, 48 h
Albumin [8] = biological target: T1, Albumin; experiment: Binding affinity to bovine serum albumin assessed as hyperchromicity at 5 to 40 uM incubated for 10 mins by UV-Vis absorption spectroscopic method relative to control; type: ADME; details: cattle, isolated protein
Albumin [9] = biological target: T1, Albumin; experiment: Binding affinity to bovine serum albumin assessed as hypochromicity at 5 to 40 uM by fluorescence emission spectrum analysis method relative to control; type: ADME; details: cattle, isolated protein
Calf thymus DNA [10] = experiment: Binding affinity to calf thymus DNA assessed as hyperchromicity at 30 uM incubated for 10 mins by UV-Vis absorption spectroscopic method relative to control; type: nucleic-acid assay; details: Bos taurus
Calf thymus DNA [11] = experiment: Binding affinity to calf thymus DNA assessed as binding constant incubated for 10 mins by UV-Vis absorption spectroscopic method; type: nucleic-acid assay; details: Bos taurus
Albumin [12] = biological target: T1, Albumin; experiment: Binding affinity to bovine serum albumin assessed as binding constant incubated for 10 mins by UV-Vis absorption spectroscopic method; type: ADME; details: cattle, isolated protein
[13] = Cytotoxicity against mouse RAW264.7 cells assessed as reduction in cell viability incubated for 48 hrs by MTT assay; type: cell-based
[14] = Selectivity index, ratio of CC50 for mouse RAW264.7 cells to ratio of IC50 for human MCF7 cells; type: toxicity; details: RAW264.7 cells and MCF7 cells, read-out: Ratio CC50/IC50
Calf thymus DNA [15] = experiment: Binding affinity to calf thymus DNA assessed as DNA spectral changes at 30 uM incubated for 10 mins by circular dichroism method; type: nucleic-acid assay; details: Bos taurus
Calf thymus DNA [16] = experiment: Binding affinity to calf thymus DNA assessed as hypochromicity at 30 uM incubated for 10 mins by UV-Vis absorption spectroscopic method relative to control; type: nucleic-acid assay; details: Bos taurus
Calf thymus DNA [17] = experiment: Binding affinity to calf thymus DNA assessed as hypsochromic shift at 30 uM incubated for 10 mins by UV-Vis absorption spectroscopic method; type: nucleic-acid assay; details: Bos taurus

SMILES | inhibition [1] | Activity (Salmon testes DNA) | Activity (Albumin [2]) | selectivity ratio [3] | IC50 (T47D) [µM] | Activity (Calf thymus DNA [4]) | KSV (Albumin [5]) [×10⁴ /M] | Activity (Calf thymus DNA [6]) | fold change (FC) (Calf thymus DNA [7]) | IC50 (MCF7) [µM] | Activity (Albumin [8]) [%] | Activity (Albumin [9]) [%] | Activity (Calf thymus DNA [10]) [%] | Kb (Calf thymus DNA [11]) | Kb (Albumin [12]) | CC50 at 48 h [13] [µM] | selectivity ratio [14] | Activity (Calf thymus DNA [15]) | Activity (Calf thymus DNA [16]) [%] | Activity (Calf thymus DNA [17])
Cc1ccc(NC(=S)N/N=C\c2ccnc3ccccc23)cc1 | inactive | Active | Active | 38.3 | 1.32 | Active | 8.85 | Active | 2.77 | 0.98 | 58.04 | 287.44 | 11.8 | 3.56 ×10⁵ /M | 1.39 ×10⁵ /M | 50.5 | 51.5 | Active |  | 
S=C(N/N=C\c1ccnc2ccccc12)Nc1ccc(Cl)cc1 | Active | Active | Active | 50 | 1.27 |  | 6.07 | Active | 1.88 | 1.07 | 53.34 | 68.97 |  | 6.29 ×10⁴ /M | 1.13 ×10⁵ /M | 63.5 | 59.3 | Active | 8.51 | Active
COc1cc(NS(C)(=O)=O)ccc1Nc1c2ccccc2nc2ccccc12 [AMSACRINE] | Active | Active |  | 102 | 0.94 |  |  |  |  | 0.91 |  |  |  |  |  | 95.5 | 105 |  |  | 
S=C(N/N=C\c1ccnc2ccccc12)Nc1ccccc1 | Active | Active | Active | 85.5 | 1.38 |  | 11.19 | Active | 3.72 | 1.07 | 52.75 | 33.65 |  | 3.5 ×10⁴ /M | 7.29 ×10⁴ /M | 118 | 110 | Active | 52.3 | 
COc1ccc(NC(=S)N/N=C\c2ccnc3ccccc23)cc1 | Active | Active | Active | 74.6 | 1.36 |  | 9.24 | Active | 11.6 | 0.99 | 42.61 | 320.04 | 59.6 | 1.33 ×10⁵ /M | 5.44 ×10⁴ /M | 101 | 102 | Active |  | Active
S=C(N/N=C\c1ccnc2ccccc12)Nc1cccc2ccccc12 | Active | Active | Active | 18.6 | 1.21 |  | 6.36 |  | 1.67 | 0.88 | 53.34 | 226.14 | 13.9 | 2.54 ×10⁵ /M | 1.13 ×10⁵ /M | 22.6 | 25.6 | Active |  | 
C=CCNC(=S)N/N=C\c1ccnc2ccccc12 | Active | Active | Active | 85.5 | 1.23 | Active | 10.39 |  | 6.64 | 0.97 | 52.42 | 371.21 | 2.88 | 3.98 ×10⁴ /M | 1.44 ×10⁵ /M | 105 | 108 | Active |  | 
CNC(=O)c1cccc2c(Nc3ccc(NS(C)(=O)=O)cc3OC)c3cccc(C)c3nc12 [ASULACRINE] |  |  |  |  |  |  |  |  |  |  |  |  |  |  |  | 31.2 |  |  |  | 
S=C(NCCc1ccccc1)N/N=C\c1ccnc2ccccc12 | inactive | Active | Active | 29.4 | 1.12 |  | 4.09 |  | 5.53 | 1.09 | 62.54 | 157.14 |  | 2.42 ×10⁴ /M | 1.08 ×10⁵ /M | 33 | 30.2 | Active | 27.4 | 
Fc1ccc(NC(=S)N/N=C\c2ccnc3ccccc23)cc1 | Active | Active | Active | 42.9 | 1.07 |  | 5.9 |  | 3.44 | 1.1 | 38.74 | 237.42 | 15.9 | 2.37 ×10⁵ /M | 8.4 ×10⁴ /M | 45.9 | 41.7 | Active |  | 
S=C(N/N=C\c1ccnc2ccccc12)Nc1ccc(Br)cc1 | Active | Active | Active | 36.2 | 1.48 |  | 11.2 |  | 6.06 | 0.99 | 56.43 | 508.17 |  | 7.44 ×10⁴ /M | 1.17 ×10⁵ /M | 53.5 | 54.1 | Active | 10.8 | Active
O=[N+]([O-])c1ccc(NC(=S)N/N=C\c2ccnc3ccccc23)cc1 | inactive | Active | Active | 62 | 1.33 |  | 3.82 |  | 7.69 | 0.81 | 43.48 | 132.77 |  | 2.51 ×10⁴ /M | 1.03 ×10⁵ /M | 82.5 | 102 | Active | 12.9 | Active
